Laboratory results: PMC6199744, “Development of Chemical Proteomics for the Folateome and Analysis of the Kinetoplastid Folateome” (ACS Infectious Diseases, 2018)
Read-outs that look alike come from different tables or passages of the source.

Tests used:
Assay type in all cases: binding
[1] = biological target: T1, HeLa cell extract proteins (Homo sapiens, UniProt P49588)
T1 construct: endogenous in cells; host or cells: HeLa cell extract
T1 sequence (P49588 1-968): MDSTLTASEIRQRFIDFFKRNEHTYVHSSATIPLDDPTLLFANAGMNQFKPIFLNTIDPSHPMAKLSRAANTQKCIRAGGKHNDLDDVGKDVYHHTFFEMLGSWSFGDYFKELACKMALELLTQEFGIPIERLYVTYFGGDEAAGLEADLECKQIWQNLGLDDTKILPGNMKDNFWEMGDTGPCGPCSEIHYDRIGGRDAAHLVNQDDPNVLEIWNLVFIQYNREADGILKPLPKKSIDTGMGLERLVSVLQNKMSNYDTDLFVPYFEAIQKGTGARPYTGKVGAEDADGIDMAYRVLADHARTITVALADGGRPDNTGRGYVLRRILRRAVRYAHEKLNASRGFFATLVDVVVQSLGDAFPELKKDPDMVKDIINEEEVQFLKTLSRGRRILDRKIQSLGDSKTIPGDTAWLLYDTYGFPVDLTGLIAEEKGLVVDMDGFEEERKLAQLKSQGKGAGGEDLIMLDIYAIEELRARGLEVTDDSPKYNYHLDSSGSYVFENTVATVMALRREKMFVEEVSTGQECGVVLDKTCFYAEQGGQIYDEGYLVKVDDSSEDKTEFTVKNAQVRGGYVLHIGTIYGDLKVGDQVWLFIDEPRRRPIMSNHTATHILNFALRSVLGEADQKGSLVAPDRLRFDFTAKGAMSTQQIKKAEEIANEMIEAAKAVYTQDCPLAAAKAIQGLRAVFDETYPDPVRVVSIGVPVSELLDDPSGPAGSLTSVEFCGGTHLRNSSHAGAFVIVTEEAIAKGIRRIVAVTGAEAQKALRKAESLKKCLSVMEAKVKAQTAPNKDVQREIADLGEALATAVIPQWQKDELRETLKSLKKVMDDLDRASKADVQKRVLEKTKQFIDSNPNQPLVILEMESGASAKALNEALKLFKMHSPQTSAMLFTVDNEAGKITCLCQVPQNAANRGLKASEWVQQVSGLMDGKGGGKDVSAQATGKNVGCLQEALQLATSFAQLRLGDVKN

[2] = biological target: T2, HeLa cell extract proteins (Homo sapiens, UniProt Q9ULK4)
T2 construct: endogenous in cells; host or cells: HeLa cell extract
T2 sequence (Q9ULK4 1-1368): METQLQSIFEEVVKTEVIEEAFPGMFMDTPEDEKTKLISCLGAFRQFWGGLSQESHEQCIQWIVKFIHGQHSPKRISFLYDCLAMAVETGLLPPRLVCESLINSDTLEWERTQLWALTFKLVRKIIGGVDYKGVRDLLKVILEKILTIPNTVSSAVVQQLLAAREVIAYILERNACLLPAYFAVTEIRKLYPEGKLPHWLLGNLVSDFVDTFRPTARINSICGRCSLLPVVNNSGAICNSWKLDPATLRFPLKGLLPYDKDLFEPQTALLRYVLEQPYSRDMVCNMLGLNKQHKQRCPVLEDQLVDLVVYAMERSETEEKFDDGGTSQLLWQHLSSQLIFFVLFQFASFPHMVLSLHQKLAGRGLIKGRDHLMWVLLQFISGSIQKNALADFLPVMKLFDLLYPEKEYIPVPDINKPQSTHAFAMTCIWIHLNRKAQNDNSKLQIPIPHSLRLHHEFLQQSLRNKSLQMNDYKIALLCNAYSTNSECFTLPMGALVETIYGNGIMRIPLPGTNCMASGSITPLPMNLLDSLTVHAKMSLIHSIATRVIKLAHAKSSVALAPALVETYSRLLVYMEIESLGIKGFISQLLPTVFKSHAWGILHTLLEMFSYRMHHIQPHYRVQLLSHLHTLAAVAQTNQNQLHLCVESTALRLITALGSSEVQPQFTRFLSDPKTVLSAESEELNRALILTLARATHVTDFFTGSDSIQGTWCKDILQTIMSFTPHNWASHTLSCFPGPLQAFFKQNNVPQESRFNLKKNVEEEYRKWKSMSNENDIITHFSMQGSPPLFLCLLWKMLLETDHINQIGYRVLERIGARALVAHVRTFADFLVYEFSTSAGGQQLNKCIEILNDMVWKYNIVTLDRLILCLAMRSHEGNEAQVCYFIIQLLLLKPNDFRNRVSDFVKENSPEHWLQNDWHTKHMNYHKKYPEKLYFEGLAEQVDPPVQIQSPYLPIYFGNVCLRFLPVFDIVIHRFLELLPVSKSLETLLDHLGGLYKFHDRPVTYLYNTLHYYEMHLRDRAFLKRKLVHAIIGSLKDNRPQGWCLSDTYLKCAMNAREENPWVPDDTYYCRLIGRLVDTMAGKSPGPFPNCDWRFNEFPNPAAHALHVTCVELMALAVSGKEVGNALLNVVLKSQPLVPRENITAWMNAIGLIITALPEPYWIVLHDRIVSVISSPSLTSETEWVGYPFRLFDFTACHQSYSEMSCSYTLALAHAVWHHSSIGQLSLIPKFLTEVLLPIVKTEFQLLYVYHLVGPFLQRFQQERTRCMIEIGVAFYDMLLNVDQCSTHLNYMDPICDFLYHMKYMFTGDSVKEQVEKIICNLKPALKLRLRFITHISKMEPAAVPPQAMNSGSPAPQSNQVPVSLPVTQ

[3] = biological target: T3, HeLa cell extract proteins (Homo sapiens, UniProt P39656)
T3 construct: endogenous in cells; host or cells: HeLa cell extract
T3 sequence (P39656 43-456): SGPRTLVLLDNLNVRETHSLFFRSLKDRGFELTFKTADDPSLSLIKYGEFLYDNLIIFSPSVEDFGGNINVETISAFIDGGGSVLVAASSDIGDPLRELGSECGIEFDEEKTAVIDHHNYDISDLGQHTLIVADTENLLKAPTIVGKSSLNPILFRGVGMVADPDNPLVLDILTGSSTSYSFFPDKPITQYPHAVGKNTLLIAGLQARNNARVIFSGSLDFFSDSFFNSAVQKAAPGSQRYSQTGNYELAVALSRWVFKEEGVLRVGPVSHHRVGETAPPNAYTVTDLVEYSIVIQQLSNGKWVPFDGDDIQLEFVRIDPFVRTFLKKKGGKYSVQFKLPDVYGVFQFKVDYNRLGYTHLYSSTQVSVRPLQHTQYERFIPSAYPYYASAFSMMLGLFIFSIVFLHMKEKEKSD

Row | Compound | fold changes relative to vehicle control ([1]; protein AARS, HeLa) | fold changes relative to vehicle control ([2]; captured protein MED23, HeLa) | fold changes relative to vehicle control ([3]; captured protein DDOST, HeLa) | fold changes relative to vehicle control ([1]; HeLa, protein AARS) | fold changes relative to vehicle control ([2]; HeLa, protein MED23) | fold changes relative to vehicle control ([3]; HeLa, captured protein DDOST) | other results
1 | Nc1nc2cccc(-c3ccccc3)c2n1Cc1ccc(Cl)c(Cl)c1 [compound 3] | 0.95 | 1.1 | 1.05 |  |  |  | 
2 | CCCCCCOc1ccc(Cc2cnc(N)nc2N)cc1 [compound 1] | 1.15 | 0.94 | 0.81 |  |  |  | 
3 | NCCCNc1ccc(C(=O)NC(CCC(=O)O)C(=O)O)cc1 (stereo not drawn) [compound 7] |  |  |  | 1 | 0.97 | 1.07 | 
4 | CCCCCCOc1cccc(Cc2cnc(N)nc2N)c1 [compound 2] | 1.96 | 1.04 | 1.1 |  |  |  | 
5 | NCCOCCOCC(=O)Nc1nc2ncc(CNc3ccc(C(=O)NC(CCC(=O)O)C(=O)O)cc3)nc2c(=O)[nH]1 (stereo not drawn) [compound 6] |  |  |  | 1.28 | 0.93 | 0.95 | 
6 | Nc1nc2[nH]cc(CCc3ccc(C(=O)N[C@@H](CCC(=O)O)C(=O)O)cc3)c2c(=O)[nH]1 [PTX, pemetrexed] |  |  |  |  |  |  | fold changes relative to vehicle control [1]: 1.1; fold changes relative to vehicle control [2]: 0.95; fold changes relative to vehicle control [3]: 0.85
7 | Nc1nc2c(c(=O)[nH]1)N(C=O)C(CNc1ccc(C(=O)N[C@@H](CCC(=O)O)C(=O)O)cc1)CN2 (stereo partly drawn) [LEU, leucovorin] |  |  |  | 1.02 | 0.91 | 0.8 | 
